Assay results reported in patent US4710492A, “3'-azido-2',3'-dideoxy-5-halouridine and its use in treating patients infected with retroviruses” (Yale University, priority 1986, dated 1987).
Like-named read-outs stand apart in the source and are kept apart here.

How the values were obtained:
[1] = test system: Moloney Murine Leukemia Virus; test: Antiviral screening against Moloney Murine Leukemia Virus (MuLV) by XC-Assay; type: cell-based; details: read-out: ID50 (Moloney Murine Leukemia Virus)
Description: Biological Activity Assay Procedure for Antiviral Screening Against Moloney Murine Leukemia Virus (MuLV) by XC-Assay
The XC assay system is an indirect method for quantitation of murine-leukemia virus (MuLV) originally described by V. Klement et al, Proc. Natl. Acad. Sci., 63, 753, (1969) and modified by W. Rowe et al, Virology, 42, 1136, (1970). This test is based on the development of syncytial changes in the XC cell line when it is co-cultivated with mouse fibroblast cells (SC-1 cells) productively infected with MuLV. The XC cell line was derived from a rat tumor induced by the prague strain of Rouse Sarcoma Virus (RSV) (J. Svoboda et al, Folia Biol., 9, 77, (1963)).
1E5 SC-1 cells were seeded, in Earls Minimum Essential Medium (EMEM)-10% Fetal Bovine Serum (FBS), onto 60 mm petri dishes. The following day, the cells were inoculated with 0.5 ml of a virus dilution containing 25 μg/ml of DEAE-dextran. The dishes were maintained for 1 hour at 37° C. in a humidified 5% CO2 incubator. The virus inoculum was then removed and replaced with 5 ml of medium containing appropriate concentration of the test compound (two dishes/concentration). Medium containing 5% FBS was added to the virus control dishes. The medium (with or without the test compound) was changed at 48 hours.
Five days after virus inoculation, the culture fluid was decanted and the cells were irradiated with a GE germicidal bulb for 30 seconds (1500-1800 ergs UV-light). Cultures were immediately overlaid with 2E5 XC cells in 5 ml of EMEM-10% FBS/dish. The medium was changed at 2 day intervals. Four days after XC cell addition, cultures were simultaneously fixed and stained with GEIMSA for 10 to 15 minutes.
Plaques were counted using an inverted microscopy as holes in the cell sheet containing syncytial cells, or as focal masses of multinucleated giant cells.
Calculation of % Inhibition/Concentration: [formula] ID50: Accumulative % Inhibition using Reed-Muench Method

[2] = test system: HTLV-III/LAV/AAV; test: Antiviral activity against HTLV-III/LAV/AAV; type: cell-based; details: Human immunodeficiency virus 1; read-out: ID50 HTLV-III/LAV/AAV
[3] = test system: HTLV III/LAV; details: in vitro; Mitsuya et al. 1985; cited from earlier work
[4] = SC1, XC-assay, SC-1 mouse fibroblast cells co-cultivated with XC cells, Reed-Muench Method

| Structure (SMILES) | IC50 [1, 4] | IC50 [2] | IC50 ([1]; SC1, Fibroblast) | HTLV III/LAV replication [3] | cytopathic effects of HTLV III/LAV [3] |
| --- | --- | --- | --- | --- | --- |
| [N-]=[N+]=N[C@H]1C[C@H](n2cc(Br)c(=O)[nH]c2=O)O[C@@H]1CO [3'-N3 --BUdR, 3'-azido-2',3'-dideoxy-5-bromouridine] | 1500 nM | 2300 nM |  |  |  |
| [N-]=[N+]=N[C@H]1C[C@H](n2cc(I)c(=O)[nH]c2=O)O[C@@H]1CO [3'-N3 --IUdR, 3'-azido-2',3'-dideoxy-5-iodouridine] | 3000 nM |  |  |  |  |
| Cc1cn([C@H]2C[C@H](N=[N+]=[N-])[C@@H](CO)O2)c(=O)[nH]c1=O [3'-azido-3'-deoxythymidine] |  | 230 nM | 23 nM | inhibit HTLV III/LAV replication | block the cytopathic effects |
